The source of these data is PubChem BioAssay AID330 (DTP/NCI, 2004).

The experiment deals with P388 leukemia ip, CD2F1 mice, survival T/C. Kind of experiment: NCI In Vivo Anticancer Drug Screen. Data for tumor model P388 Leukemia (intraperitoneal) in CD2F1 (CDF1) mice. Particulars: endpoint: median survival time, higher = longer survival. A digest of the protocol:
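Mice carrying the transplanted tumor received test compound or vehicle. Survival was recorded in each group, and the value is the treated-group measurement divided by that of the vehicle-treated control group.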

The mark [1] stands for this setting: dose: 15.0 mg/kg/injection, schedule: Q01DX005 (ip), vehicle: saline with Tween-80.
The mark [2] stands for this setting: dose: 30.0 mg/kg/injection, schedule: Q01DX005 (ip), vehicle: saline with Tween-80.
Where [3] appears, read: dose: 60.0 mg/kg/injection, schedule: Q01DX005 (ip), vehicle: saline with Tween-80.
Setting [4] is: dose: 120.0 mg/kg/injection, schedule: Q01DX005 (ip), vehicle: saline with Tween-80.
Where [5] appears, read: dose: 60.0 mg/kg/injection, schedule: Q01DX005 (ip), vehicle: Klucel (hydroxypropylcellulose) (HPC).
The mark [6] stands for this setting: dose: 120.0 mg/kg/injection, schedule: Q01DX005 (ip), vehicle: Klucel (hydroxypropylcellulose) (HPC).
The mark [7] stands for this setting: dose: 240.0 mg/kg/injection, schedule: Q01DX005 (ip), vehicle: Klucel (hydroxypropylcellulose) (HPC).
The mark [8] stands for this setting: dose: 240.0 mg/kg/injection, schedule: Q01DX005 (ip), vehicle: saline with Tween-80.
Setting [9] is: dose: 50.0 mg/kg/injection, schedule: Q01DX009 (ip), vehicle: saline.
Setting [10] is: dose: 100.0 mg/kg/injection, schedule: Q01DX009 (ip), vehicle: saline.
[11] abbreviates: dose: 200.0 mg/kg/injection, schedule: Q01DX009 (ip), vehicle: saline.

“And” between values parts separate entries of the source, which are not always exact repeats. Identical values can stand only once. Toxic doses and inconclusive results are not listed. Peptide text beside a SMILES is read from it. * marks the point of attachment. Trt = c1ccc(C(c2ccccc2)(c2ccccc2)*)cc1; Boc = CC(C)(C)OC(=O)*; Bn = c1ccc(C*)cc1

Take `Nc1nc(N)c2nc(-c3ccc([N+](=O)[O-])cc3)c(Cl)nc2n1`: the T/C under setting [1] is 98 % of control; the T/C under setting [2] is 98 % of control; the T/C under setting [3] is 95 % of control and 98 % of control; the T/C under setting [4] was 92 % of control.

`Cc1ccccc1/C(=C/c1ccc([N+](=O)[O-])cc1)C(=O)O`: the T/C under setting [5] was 108 % of control, the T/C under setting [6] is 108 % of control and the T/C under setting [7] is 112 % of control.

For the molecule `COc1cccc2c1C(=O)c1c(O)c3c(c(O)c1C2=O)CC(O)(C(=O)CO)CC3OC1CC(N)C(O)C(C)O1.[Cl][Pt+2][Cl].[NH2-].[NH2-]` (stereo not drawn), the T/C is 171 % of control and 182 % of control (dose: 8.0 mg/kg/injection, schedule: Q04DX003 (ip), vehicle: DMSO); 174 % of control and 193 % of control (dose: 16.0 mg/kg/injection, schedule: Q04DX003 (ip), vehicle: DMSO); 118 % of control (dose: 32.0 mg/kg/injection, schedule: Q04DX003 (ip), vehicle: DMSO); 100 % of control (dose: 64.0 mg/kg/injection, schedule: Q04DX003 (ip), vehicle: DMSO).

Regarding `CCN(CC)CC.[CH-]1CCCCC1.[CH-]1CCCCC1.[CH3-].[Cl-].[Cl-].[Sn+4]`, the T/C runs as follows: (dose: 6.0 mg/kg/injection, schedule: Q01DX005 (ip), vehicle: saline) 107 % of control; (dose: 12.0 mg/kg/injection, schedule: Q01DX005 (ip), vehicle: saline) 96 % of control.

As for `CC(C)(C)c1cc(C(C)(C)C)c2[n+]([O-])ssc1-2`, the T/C by setting is: under setting [1], 120 % of control; under setting [2], 108 % of control; under setting [3], 113 % of control and 95 % of control; under setting [4], 97 % of control.

`CC(=O)CC(=O)CCC(=O)Nc1cccc([N+](=O)[O-])c1`: the T/C by setting is: under setting [3], 106 % of control; under setting [4], 100 % of control; under setting [8], 105 % of control.

For the molecule `CN1CCCN(C(c2ccccc2)c2ccc(Br)cc2)CC1` (stereo not drawn), the T/C runs as follows: (dose: 25.0 mg/kg/injection, schedule: Q01DX009 (ip), vehicle: saline) 97 % of control; under setting [9], 103 % of control; under setting [10], 101 % of control and 91 % of control.

As for `O=C(Cc1ccccc1)OCC1=CCN2CC[C@@H](O)[C@@H]12`, the T/C (dose: 15.0 mg/kg/injection, schedule: Q01DX009 (ip), vehicle: saline + alcohol) is 97 % of control; the T/C (dose: 30.0 mg/kg/injection, schedule: Q01DX009 (ip), vehicle: saline + alcohol) is 99 % of control; the T/C (dose: 60.0 mg/kg/injection, schedule: Q01DX009 (ip), vehicle: saline + alcohol) is 97 % of control; the T/C (dose: 120.0 mg/kg/injection, schedule: Q01DX009 (ip), vehicle: saline + alcohol) was 109 % of control; the T/C (dose: 240.0 mg/kg/injection, schedule: Q01DX009 (ip), vehicle: saline + alcohol) is 105 % of control; the T/C (dose: 480.0 mg/kg/injection, schedule: Q01DX009 (ip), vehicle: saline + alcohol) was 116 % of control.

As for `COc1cc(CO)ccc1O`, the T/C was 102 % of control and 105 % of control under setting [10]; 89 % of control and 93 % of control under setting [11]; 99 % of control and 104 % of control (dose: 400.0 mg/kg/injection, schedule: Q01DX009 (ip), vehicle: saline); 107 % of control and 89 % of control (dose: 600.0 mg/kg/injection, schedule: Q01DX009 (ip), vehicle: saline).

`Cc1nc2c(cc1C#N)C(Nc1ccc(Cl)cc1)Oc1ccc([N+](=O)[O-])cc1-2` (stereo not drawn): the T/C by setting is: under setting [3], 92 % of control; under setting [4], 92 % of control; under setting [8], 90 % of control.

For the molecule `CSCCC(NC(=O)C(CC(C)C)NC(=O)OC(C)(C)C)C(N)=O` (stereo not drawn) (Boc-Leu-Met-NH2; configuration not given here), the T/C (dose: 50.0 mg/kg/injection, schedule: Q01DX005 (ip), vehicle: Klucel (hydroxypropylcellulose) (HPC)) was 98 % of control; the T/C (dose: 100.0 mg/kg/injection, schedule: Q01DX005 (ip), vehicle: Klucel (hydroxypropylcellulose) (HPC)) was 91 % of control; the T/C (dose: 200.0 mg/kg/injection, schedule: Q01DX005 (ip), vehicle: Klucel (hydroxypropylcellulose) (HPC)) was 95 % of control.

Regarding `CC1C(=O)C(Cl)(Cl)C1(C)C` (stereo not drawn), the T/C reads like this: (dose: 100.0 mg/kg/injection, schedule: Q01DX001 (ip), vehicle: saline with Tween-80) 106 % of control; (dose: 200.0 mg/kg/injection, schedule: Q01DX001 (ip), vehicle: saline with Tween-80) 110 % of control.

`COC(=O)C(CSC(c1ccccc1)(c1ccccc1)c1ccccc1)NC(=O)C(CSCc1ccccc1)NC(C)=O` (stereo not drawn) (Ac-Cys(Bn)-Cys(Trt)-OMe; configuration not given here): the T/C reads like this: (dose: 4.0 mg/kg/injection, schedule: Q01DX009 (ip), vehicle: water) 96 % of control; (dose: 8.0 mg/kg/injection, schedule: Q01DX009 (ip), vehicle: water) 104 % of control; (dose: 16.0 mg/kg/injection, schedule: Q01DX009 (ip), vehicle: water) 101 % of control; (dose: 32.0 mg/kg/injection, schedule: Q01DX009 (ip), vehicle: water) 95 % of control; (dose: 64.0 mg/kg/injection, schedule: Q01DX009 (ip), vehicle: water) 95 % of control; (dose: 128.0 mg/kg/injection, schedule: Q01DX009 (ip), vehicle: water) 90 % of control.

For `Cc1noc(NS(=O)(=O)c2ccc(NCc3c4ccccc4nc4cc(Cl)ccc34)cc2)c1C`, the T/C is 100 % of control under setting [3], 97 % of control under setting [4] and 103 % of control under setting [8].

Turning to `CCN(CC)CCNc1ccc(C)c2sc3cc(O)ccc3c(=O)c12`, the T/C (dose: 50.0 mg/kg/injection, schedule: Q01DX005 (ip), vehicle: saline) was 107 % of control; the T/C (dose: 100.0 mg/kg/injection, schedule: Q01DX005 (ip), vehicle: saline) was 108 % of control; the T/C (dose: 200.0 mg/kg/injection, schedule: Q01DX005 (ip), vehicle: saline) was 106 % of control.

For the molecule `O=C1C=C[C@@H](COC(c2ccccc2)(c2ccccc2)c2ccccc2)O1`, the T/C (dose: 100.0 mg/kg/injection, schedule: Q04DX002 (ip), vehicle: saline with Tween-80) is 92 % of control; the T/C (dose: 200.0 mg/kg/injection, schedule: Q04DX002 (ip), vehicle: saline with Tween-80) is 86 % of control; the T/C (dose: 400.0 mg/kg/injection, schedule: Q04DX002 (ip), vehicle: saline with Tween-80) is 89 % of control.

Turning to `Nc1cc(S(=O)(=O)O)c(Br)c(Br)c1Br`, the T/C was 94 % of control under setting [9], 95 % of control under setting [10] and 90 % of control under setting [11].

On to `O=c1nc(-c2ccccc2)sc(=O)[nH]1`, for which the T/C runs as follows: (dose: 50.0 mg/kg/injection, schedule: Q01DX009 (ip), vehicle: Klucel (hydroxypropylcellulose) (HPC)) 102 % of control; (dose: 100.0 mg/kg/injection, schedule: Q01DX009 (ip), vehicle: Klucel (hydroxypropylcellulose) (HPC)) 111 % of control.

Turning to `Clc1ccc(S/N=C/c2ccccc2)cc1`, the T/C is, setting by setting: (dose: 50.0 mg/kg/injection, schedule: Q01DX009 (ip), vehicle: saline with Tween-80) 113 % of control; (dose: 100.0 mg/kg/injection, schedule: Q01DX009 (ip), vehicle: saline with Tween-80) 114 % of control.

For `N=c1oc(-c2ccccc2)cc2ccccc12`, the T/C (dose: 6.25 mg/kg/injection, schedule: Q01DX005 (ip), vehicle: Klucel (hydroxypropylcellulose) (HPC)) was 104 % of control; the T/C (dose: 12.5 mg/kg/injection, schedule: Q01DX005 (ip), vehicle: Klucel (hydroxypropylcellulose) (HPC)) is 100 % of control; the T/C (dose: 25.0 mg/kg/injection, schedule: Q01DX005 (ip), vehicle: Klucel (hydroxypropylcellulose) (HPC)) was 104 % of control.

For `Cc1nc2ccccc2c(=O)n1/N=C\c1ccc2c(c1)CCC2`, the T/C is 97 % of control under setting [5], 104 % of control under setting [6] and 95 % of control under setting [7].

As for `COC(SC)c1cc(-c2c(Cl)cccc2Cl)no1` (stereo not drawn), the T/C reads like this: under setting [3], 93 % of control; under setting [4], 103 % of control; under setting [8], 107 % of control.

`COC1=C(OC)C(=O)C2=C(OCCCCO2)C1=O`: the T/C runs as follows: under setting [1], 104 % of control; under setting [2], 103 % of control; under setting [3], 101 % of control and 107 % of control; under setting [4], 100 % of control; under setting [8], 99 % of control.

For `COc1ccc2[nH]c(-c3ccccc3)cc2c1`, the T/C (dose: 100.0 mg/kg/injection, schedule: Q04DX003 (ip), vehicle: saline with Tween-80) was 105 % of control; the T/C (dose: 200.0 mg/kg/injection, schedule: Q04DX003 (ip), vehicle: saline with Tween-80) is 110 % of control; the T/C (dose: 400.0 mg/kg/injection, schedule: Q04DX003 (ip), vehicle: saline with Tween-80) was 100 % of control.

Regarding `S=c1sc(-c2ccc(Cl)cc2)nn1CSc1nc2ccccc2o1`, the T/C reads like this: under setting [3], 97 % of control; under setting [4], 101 % of control; under setting [8], 95 % of control.
